PubChem BioAssay (NCI)
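A five-concentration, 48-hour dose response in 96-well plates underlies each endpoint, interpolated linearly between surrounding concentrations. GI50 is the concentration that inhibits growth by half. Definition used: TGI = concentration required for complete inhibition of growth.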

Tests used:
Assay in all cases: inhibition of tumour cell growth, NCI panel, 48 h
NCI-H23 lung = test system: NCI-H23 lung
SW-620 colon = test system: SW-620 colon
UACC-257 melanoma = test system: UACC-257 melanoma
HOP-62 NSCLC = test system: HOP-62 NSCLC
SK-MEL-5 melanoma = test system: SK-MEL-5 melanoma
OVCAR-3 ovarian = test system: OVCAR-3 ovarian
OVCAR-4 ovarian = test system: OVCAR-4 ovarian
SF-295 CNS = test system: SF-295 CNS
SNB-19 CNS = test system: SNB-19 CNS
SK-OV-3 ovarian = test system: SK-OV-3 ovarian
MALME-3M melanoma = test system: MALME-3M melanoma
DU-145 prostate = test system: DU-145 prostate
TK-10 renal = test system: TK-10 renal
MDA-MB-435 = test system: MDA-MB-435
SF-539 CNS = test system: SF-539 CNS
MCF7 breast = test system: MCF7 breast
HOP-92 NSCLC = test system: HOP-92 NSCLC
NCI-H460 lung = test system: NCI-H460 lung
SF-268 CNS = test system: SF-268 CNS
RXF 393 renal = test system: RXF 393 renal
EKVX NSCLC = test system: EKVX NSCLC
RPMI-8226 leukemia = test system: RPMI-8226 leukemia
COLO 205 colon = test system: COLO 205 colon
A498 renal = test system: A498 renal
SK-MEL-28 melanoma = test system: SK-MEL-28 melanoma
SNB-75 CNS = test system: SNB-75 CNS
UO-31 renal = test system: UO-31 renal
MDA-MB-231 breast = test system: MDA-MB-231 breast
NCI-H522 lung = test system: NCI-H522 lung
HL-60(TB) leukemia = test system: HL-60(TB) leukemia
786-0 renal = test system: 786-0 renal
ACHN renal = test system: ACHN renal
OVCAR-5 ovarian = test system: OVCAR-5 ovarian
PC-3 prostate = test system: PC-3 prostate
HCC-2998 colon = test system: HCC-2998 colon
UACC-62 melanoma = test system: UACC-62 melanoma
BT-549 breast = test system: BT-549 breast
MOLT-4 leukemia = test system: MOLT-4 leukemia
A549 NSCLC = test system: A549 NSCLC
K-562 leukemia = test system: K-562 leukemia
SR leukemia = test system: SR leukemia
IGROV1 ovarian = test system: IGROV1 ovarian
SK-MEL-2 melanoma = test system: SK-MEL-2 melanoma
HT29 colon = test system: HT29 colon
LOX IMVI melanoma = test system: LOX IMVI melanoma
M14 melanoma = test system: M14 melanoma
NCI/ADR-RES ovarian = test system: NCI/ADR-RES ovarian
T-47D breast = test system: T-47D breast
CAKI-1 renal = test system: CAKI-1 renal
HS 578T breast = test system: HS 578T breast
SN12C renal = test system: SN12C renal
NCI-H226 lung = test system: NCI-H226 lung
HCT-116 colon = test system: HCT-116 colon
CCRF-CEM leukemia = test system: CCRF-CEM leukemia
U251 CNS = test system: U251 CNS
HCT-15 colon = test system: HCT-15 colon
KM12 colon = test system: KM12 colon
MDA-MB-468 breast = test system: MDA-MB-468 breast
OVCAR-8 ovarian = test system: OVCAR-8 ovarian

CS(=O)(=O)Nc1cncc(-c2ccc3ncnc(NCc4ccccc4)c3c2)c1
GI50 (NCI-H23 lung): 12.7 µM | TGI (NCI-H23 lung): 28.1 µM | GI50 (SW-620 colon): 17.1 µM | TGI (SW-620 colon): 41.6 µM | GI50 (UACC-257 melanoma): 13.8 µM | TGI (UACC-257 melanoma): 51.6 µM | GI50 (HOP-62 NSCLC): 12.2 µM | TGI (HOP-62 NSCLC): 35 µM | GI50 (SK-MEL-5 melanoma): 12.9 µM | TGI (SK-MEL-5 melanoma): 25.6 µM | GI50 (OVCAR-3 ovarian): 5.93 µM | TGI (OVCAR-3 ovarian): 21.6 µM | GI50 (OVCAR-4 ovarian): 12.2 µM | TGI (OVCAR-4 ovarian): 50.2 µM | GI50 (SF-295 CNS): 16.4 µM | TGI (SF-295 CNS): 39.4 µM | GI50 (SNB-19 CNS): 9.74 µM | TGI (SNB-19 CNS): 26.2 µM | GI50 (SK-OV-3 ovarian): 15.5 µM | TGI (SK-OV-3 ovarian): 34.9 µM | GI50 (MALME-3M melanoma): 4.17 µM | TGI (MALME-3M melanoma): 21.5 µM | GI50 (DU-145 prostate): 22.2 µM | TGI (DU-145 prostate): > 100 µM | GI50 (TK-10 renal): 10.7 µM | TGI (TK-10 renal): 29.9 µM | GI50 (MDA-MB-435): 10.8 µM | TGI (MDA-MB-435): 27.4 µM | GI50 (SF-539 CNS): 11.9 µM | TGI (SF-539 CNS): 27.6 µM | GI50 (MCF7 breast): 4.56 µM | TGI (MCF7 breast): 24.6 µM | GI50 (HOP-92 NSCLC): 3.92 µM | TGI (HOP-92 NSCLC): 20.1 µM | GI50 (NCI-H460 lung): 25.6 µM | TGI (NCI-H460 lung): 94.3 µM | GI50 (SF-268 CNS): 10.5 µM | TGI (SF-268 CNS): 36.7 µM | GI50 (RXF 393 renal): 10.8 µM | TGI (RXF 393 renal): 26.6 µM | GI50 (EKVX NSCLC): 12.9 µM | TGI (EKVX NSCLC): 31.4 µM | GI50 (RPMI-8226 leukemia): 15.1 µM | TGI (RPMI-8226 leukemia): 38 µM | GI50 (COLO 205 colon): 13.2 µM | TGI (COLO 205 colon): 26.6 µM | GI50 (A498 renal): 13.1 µM | TGI (A498 renal): 36.1 µM | GI50 (SK-MEL-28 melanoma): 11 µM | TGI (SK-MEL-28 melanoma): 38.3 µM | GI50 (SNB-75 CNS): 6.7 µM | TGI (SNB-75 CNS): 32.8 µM | GI50 (UO-31 renal): 12.1 µM | TGI (UO-31 renal): 36.5 µM | GI50 (MDA-MB-231 breast): 12.3 µM | TGI (MDA-MB-231 breast): 27 µM | GI50 (NCI-H522 lung): 4.21 µM | TGI (NCI-H522 lung): 18.9 µM | GI50 (HL-60(TB) leukemia): 10.3 µM | TGI (HL-60(TB) leukemia): 40.9 µM | GI50 (786-0 renal): 15 µM | TGI (786-0 renal): 37.3 µM | GI50 (ACHN renal): 20.2 µM | TGI (ACHN renal): > 100 µM | GI50 (OVCAR-5 ovarian): 12.3 µM | TGI (OVCAR-5 ovarian): 32.9 µM | GI50 (PC-3 prostate): 14.6 µM | TGI (PC-3 prostate): 38.3 µM | GI50 (HCC-2998 colon): 11.5 µM | TGI (HCC-2998 colon): 23.8 µM | GI50 (UACC-62 melanoma): 7.19 µM | TGI (UACC-62 melanoma): 20.4 µM | GI50 (BT-549 breast): 3.63 µM | TGI (BT-549 breast): 21.5 µM | GI50 (MOLT-4 leukemia): 5.53 µM | TGI (MOLT-4 leukemia): 74 µM | GI50 (A549 NSCLC): 15.5 µM | TGI (A549 NSCLC): 31.7 µM | GI50 (K-562 leukemia): 18.7 µM | TGI (K-562 leukemia): > 100 µM | GI50 (SR leukemia): 8.84 µM | TGI (SR leukemia): 40.3 µM | GI50 (IGROV1 ovarian): 7.73 µM | TGI (IGROV1 ovarian): 22.9 µM | GI50 (SK-MEL-2 melanoma): 5.75 µM | TGI (SK-MEL-2 melanoma): 19.3 µM | GI50 (HT29 colon): 14.4 µM | TGI (HT29 colon): 30 µM | GI50 (LOX IMVI melanoma): 11.9 µM | TGI (LOX IMVI melanoma): 24.2 µM | GI50 (M14 melanoma): 14.6 µM | TGI (M14 melanoma): 45.7 µM | GI50 (NCI/ADR-RES ovarian): > 100 µM | TGI (NCI/ADR-RES ovarian): > 100 µM | GI50 (T-47D breast): 2.85 µM | TGI (T-47D breast): 12.7 µM | GI50 (CAKI-1 renal): 12.8 µM | TGI (CAKI-1 renal): 30.2 µM | GI50 (HS 578T breast): 3.36 µM | TGI (HS 578T breast): 20.5 µM | GI50 (SN12C renal): 12.4 µM | TGI (SN12C renal): 39.1 µM | GI50 (NCI-H226 lung): 14 µM | TGI (NCI-H226 lung): 37.1 µM | GI50 (HCT-116 colon): 13.9 µM | TGI (HCT-116 colon): 29.1 µM | GI50 (CCRF-CEM leukemia): 4.58 µM | TGI (CCRF-CEM leukemia): 33.3 µM | GI50 (U251 CNS): 7.54 µM | TGI (U251 CNS): 41 µM | GI50 (HCT-15 colon): 23.3 µM | TGI (HCT-15 colon): 98.3 µM | GI50 (KM12 colon): 14.2 µM | TGI (KM12 colon): 30 µM | GI50 (MDA-MB-468 breast): 2.14 µM | TGI (MDA-MB-468 breast): 8.25 µM | GI50 (OVCAR-8 ovarian): 19.1 µM | TGI (OVCAR-8 ovarian): 79 µM
